According to PubChem BioAssay AID2060330 (Molecular Pharmacology Branch, DTP, NCI, 2025):

Tested on: LG0703-F948-PDC spheroids with HUVEC/MSC, viability
Assay: Anticancer human tumor LG0703-F948-PDC patient-derived lung adenocarcinoma cell line growth inhibition [IpAb]
Conditions: for IC50: curve of first compound; for viability, T/C: stronger effect = lower value
Summary of the method: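 Combinations with ipatasertib or abemaciclib were tested on tumour spheroids holding HUVEC (25%) and MSC (15%) alongside 60% malignant cells. Top concentration was at or near clinical Cmax (10 microM if undefined), descending in half-log steps.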

[1] = second compound 0.01 µM, first compound 0.0316 µM
[2] = second compound 0.01 µM, first compound 0.1 µM
[3] = second compound 0.01 µM, first compound 0.316 µM
[4] = second compound 0.01 µM, first compound 1 µM
[5] = second compound 0.01 µM, first compound 3.16 µM
[6] = second compound 0.01 µM, first compound 10 µM
[7] = second compound 0.0316 µM, first compound 0.0316 µM
[8] = second compound 0.0316 µM, first compound 0.1 µM
[9] = second compound 0.0316 µM, first compound 0.316 µM
[10] = second compound 0.0316 µM, first compound 1 µM
[11] = second compound 0.0316 µM, first compound 3.16 µM
[12] = second compound 0.0316 µM, first compound 10 µM
[13] = second compound 0.1 µM, first compound 0.0316 µM
[14] = second compound 0.1 µM, first compound 0.1 µM
[15] = second compound 0.1 µM, first compound 0.316 µM
[16] = second compound 0.1 µM, first compound 1 µM
[17] = second compound 0.1 µM, first compound 3.16 µM
[18] = second compound 0.1 µM, first compound 10 µM
[19] = second compound 0.316 µM, first compound 0.0316 µM
[20] = second compound 0.316 µM, first compound 0.1 µM
[21] = second compound 0.316 µM, first compound 0.316 µM
[22] = second compound 0.316 µM, first compound 1 µM
[23] = second compound 0.316 µM, first compound 3.16 µM
[24] = second compound 0.316 µM, first compound 10 µM
[25] = second compound 1 µM, first compound 0.0316 µM
[26] = second compound 1 µM, first compound 0.1 µM
[27] = second compound 1 µM, first compound 0.316 µM
[28] = second compound 1 µM, first compound 1 µM
[29] = second compound 1 µM, first compound 3.16 µM
[30] = second compound 1 µM, first compound 10 µM
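Note: spheroids exposed to compounds for seven days before readout.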
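Throughout, for viability, T/C: T/C percent relative to DMSO vehicle wells set as 100% viability.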

Q: Which results are given for `CC1(C)CCC(CN2CCN(c3ccc(C(=O)NS(=O)(=O)c4ccc(NCC5CCOCC5)c([N+](=O)[O-])c4)c(Oc4cnc5[nH]ccc5c4)c3)CC2)=C(c2ccc(Cl)cc2)C1` + CCN1CCN(Cc2ccc(Nc3ncc(F)c(-c4cc(F)c5nc(C)n(C(C)C)c5c4)n3)nc2)CC1?
A: IC50 (second compound 0.01 µM): 5.08 µM; IC50 (second compound 0.0316 µM): 5 µM; IC50 (second compound 0.1 µM): 4.92 µM; IC50 (second compound 0.316 µM): 4.12 µM; IC50 (second compound 1 µM): 1.29 µM; viability, T/C [1]: 102%; viability, T/C [2]: 100%; viability, T/C [3]: 100%; viability, T/C [4]: 87.2%; viability, T/C [5]: 77.9%; viability, T/C [6]: 13.5%; viability, T/C [7]: 81.8%; viability, T/C [8]: 102%; viability, T/C [9]: 84.3%; viability, T/C [10]: 91%; viability, T/C [11]: 75.3%; viability, T/C [12]: 11.4%; viability, T/C [13]: 92.4%; viability, T/C [14]: 86.8%; viability, T/C [15]: 72.3%; viability, T/C [16]: 88.5%; viability, T/C [17]: 73.8%; viability, T/C [18]: 11.3%; viability, T/C [19]: 87.9%; viability, T/C [20]: 88.8%; viability, T/C [21]: 79.9%; viability, T/C [22]: 79%; viability, T/C [23]: 62.6%; viability, T/C [24]: 11.1%; viability, T/C [25]: 85%; viability, T/C [26]: 79%; viability, T/C [27]: 46.9%; viability, T/C [28]: 65.8%; viability, T/C [29]: 36.9%; viability, T/C [30]: 2.51%

Q: What does the source list for `CCCS(=O)(=O)Nc1ccc(F)c(C(=O)c2c[nH]c3ncc(-c4ccc(Cl)cc4)cc23)c1F` + CCN1CCN(Cc2ccc(Nc3ncc(F)c(-c4cc(F)c5nc(C)n(C(C)C)c5c4)n3)nc2)CC1?
A: IC50 (second compound 0.01 µM): > 10 µM; IC50 (second compound 0.0316 µM): > 10 µM; IC50 (second compound 0.1 µM): > 10 µM; IC50 (second compound 0.316 µM): > 10 µM; IC50 (second compound 1 µM): > 10 µM; viability, T/C [1]: 112%; viability, T/C [2]: 115%; viability, T/C [3]: 101%; viability, T/C [4]: 99.1%; viability, T/C [5]: 100%; viability, T/C [6]: 59.5%; viability, T/C [7]: 94.5%; viability, T/C [8]: 86.9%; viability, T/C [9]: 95.1%; viability, T/C [10]: 89.5%; viability, T/C [11]: 90.9%; viability, T/C [12]: 67.2%; viability, T/C [13]: 91%; viability, T/C [14]: 81.6%; viability, T/C [15]: 91.7%; viability, T/C [16]: 90.9%; viability, T/C [17]: 87.2%; viability, T/C [18]: 59.1%; viability, T/C [19]: 89%; viability, T/C [20]: 97.3%; viability, T/C [21]: 76.6%; viability, T/C [22]: 88.1%; viability, T/C [23]: 79%; viability, T/C [24]: 51.5%; viability, T/C [25]: 90.6%; viability, T/C [26]: 68.2%; viability, T/C [27]: 52.5%; viability, T/C [28]: 80%; viability, T/C [29]: 75.6%; viability, T/C [30]: 44.8%

Q: How did the IC50 (second compound 0.01 µM) turn out when `Cn1cnc2c(F)c(Nc3ccc(Br)cc3Cl)c(C(=O)NOCCO)cc21` + CCN1CCN(Cc2ccc(Nc3ncc(F)c(-c4cc(F)c5nc(C)n(C(C)C)c5c4)n3)nc2)CC1 was run?
A: 0.27 µM

Q: And the IC50 (second compound 0.0316 µM)?
A: 0.132 µM

Q: And the IC50 (second compound 0.1 µM)?
A: 0.0541 µM

Q: And the IC50 (second compound 0.316 µM)?
A: 0.288 µM

Q: And the IC50 (second compound 1 µM)?
A: 0.0416 µM

Q: What about the viability, T/C (second compound 0.01 µM, first compound 0.00949 µM) of the same molecule?
A: 83%

Q: What about the viability, T/C (second compound 0.01 µM, first compound 0.03 µM) of the same molecule?
A: 74.6%

Q: And the viability, T/C (second compound 0.01 µM, first compound 0.0949 µM)?
A: 55.4%

Q: And the viability, T/C (second compound 0.01 µM, first compound 0.3 µM)?
A: 52.6%

Q: And the viability, T/C (second compound 0.01 µM, first compound 0.949 µM)?
A: 46.7%

Q: What about the viability, T/C (second compound 0.01 µM, first compound 3 µM) of the same molecule?
A: 45%

Q: And the viability, T/C (second compound 0.0316 µM, first compound 0.00949 µM)?
A: 80.4%

Q: What about the viability, T/C (second compound 0.0316 µM, first compound 0.03 µM) of the same molecule?
A: 61.5%

Q: What about the viability, T/C (second compound 0.0316 µM, first compound 0.0949 µM) of the same molecule?
A: 51.9%

Q: And the viability, T/C (second compound 0.0316 µM, first compound 0.3 µM)?
A: 46.2%

Q: What about the viability, T/C (second compound 0.0316 µM, first compound 0.949 µM) of the same molecule?
A: 46.1%

Q: What about the viability, T/C (second compound 0.0316 µM, first compound 3 µM) of the same molecule?
A: 39.8%

Q: And the viability, T/C (second compound 0.1 µM, first compound 0.00949 µM)?
A: 68.8%

Q: And the viability, T/C (second compound 0.1 µM, first compound 0.03 µM)?
A: 54.5%

Q: What about the viability, T/C (second compound 0.1 µM, first compound 0.0949 µM) of the same molecule?
A: 43.9%

Q: What about the viability, T/C (second compound 0.1 µM, first compound 0.3 µM) of the same molecule?
A: 44.1%

Q: What about the viability, T/C (second compound 0.1 µM, first compound 0.949 µM) of the same molecule?
A: 45.2%

Q: And the viability, T/C (second compound 0.1 µM, first compound 3 µM)?
A: 37%

Q: What about the viability, T/C (second compound 0.316 µM, first compound 0.00949 µM) of the same molecule?
A: 72.7%

Q: What about the viability, T/C (second compound 0.316 µM, first compound 0.03 µM) of the same molecule?
A: 64.9%

Q: What about the viability, T/C (second compound 0.316 µM, first compound 0.0949 µM) of the same molecule?
A: 48%

Q: What about the viability, T/C (second compound 0.316 µM, first compound 0.3 µM) of the same molecule?
A: 54.4%

Q: And the viability, T/C (second compound 0.316 µM, first compound 0.949 µM)?
A: 48.8%

Q: What about the viability, T/C (second compound 0.316 µM, first compound 3 µM) of the same molecule?
A: 41.7%

Q: What about the viability, T/C (second compound 1 µM, first compound 0.00949 µM) of the same molecule?
A: 70.1%

Q: And the viability, T/C (second compound 1 µM, first compound 0.03 µM)?
A: 53.6%

Q: What about the viability, T/C (second compound 1 µM, first compound 0.0949 µM) of the same molecule?
A: 38.4%

Q: And the viability, T/C (second compound 1 µM, first compound 0.3 µM)?
A: 44%

Q: And the viability, T/C (second compound 1 µM, first compound 0.949 µM)?
A: 39.2%

Q: What about the viability, T/C (second compound 1 µM, first compound 3 µM) of the same molecule?
A: 41.5%
